# Experimental data as given in patent publication US20150265642A1, “NAD BIOSYNTHESIS AND PRECURSORS IN THE PREVENTION AND TREATMENT OF INFLAMMATION” (PRESIDENT AND FELLOWS OF HARVARD COLLEGE, priority 2013, published 2015).
# How the values were obtained:
# C2C12 myoblasts = test: mtDNA content and ETC gene expression in C2C12 myoblasts; format: cell-based
# Procedure: C2C12 cell line (ATCC) was cultured in low glucose Dulbecco's modified eagle medium (DMEM) (Invitrogen) supplemented with 10% FBS (Invitrogen) and a mix of antibiotic and antimycotic (Invitrogen). To inhibit SIRT1, cells were treated the vehicle (0.001% DMSO) or 10 μM EX-527 (Tocris) for 12 h. C2C12 myoblasts were infected with an empty or SIRT1 adenovirus as described before (Gerhart-Hines et al., 2007) and the media was replaced with fresh DMEM for additional 48 h, after that the cells were treated as described before. To test the effects of hypoxia and HIFα stabilization in genome asyncrony, C2C12 myoblasts were exposed to 1% oxygen for 16 h or treated with the vehicle (0.001% DMSO) or DMOG (Cayman) for the same period of time.
# (§1) RNA from skeletal muscle tissue and C2C12 cells were extracted with RNeasy mini kit (Qiagen) according to the instructions and quantified using the NanoDrop 1000 spectrophotometer (Thermo Scientific). cDNA was synthesized with the iSCRIP cDNA synthesis kit (BioRad) using 600 ng of RNA. Quantitative RT-PCR reactions were performed using 1 μM of primers and LightCycler® 480 SYBR Green Master (Roche) on an LightCycler® 480 detection system (Roche). Calculations were performed by a comparative method (2-ΔCT) using 18S as an internal control. For mtDNA analysis, total DNA was extracted with DNeasy blood and tissue kit (Qiagen). mtDNA was amplified using primers specific for the mitochondrial cytochrome c oxidase subunit 2 (COX2) gene and normalized to genomic DNA by amplification of the ribosomal protein s18 (rps18) nuclear gene. Primers were designed using the IDT software (IDT) and the primer sequences can be found in Table 1.
# PGC-1α/β KO myotubes = test: Gene expression (qPCR) and HIF-1α immunoblot in PGC-1α/β KO myotubes; format: cell-based, mice; settings: for nuclear- and mitochondrial-encoded genes: EX-527 48 h; for effect on induction of mitochondrial ETC genes by SIRT1 overexpression: PGC-1α/β knockout myocytes/myotubes; for effect on induction of mitochondrial ETC genes by SIRT1 overexpression / effect on NMN-induced expression of mitochondrially-encoded ETC genes: 1 mM DMOG or 10 μM DFO, 12 hours; for effect on NMN-induced expression of mitochondrially-encoded ETC genes: primary PGC-1α/β KO myotubes
# Procedure: Primary myoblasts cells were isolated from WT, SIRT1 KO (Price et al., 2012) and PGC-1α/β KO (Zechner et al., 2010) mice as previously described (Price et al., 2012). WT and PGC-1α/β KO primary myoblasts were plated and allowed to differentiate into myotubes by replacing the media with low glucose DMEM supplemented with 2% horse serum (Sigma-Aldrich) for 4 days. After the differentiation the cells were infected with empty vector or flag-SIRT1 adenovirus as described before (Gerhart-Hines et al., 2007). Media was replaced with fresh DMEM supplemented with 2% horse serum (Sigma-Aldrich) for an additional 48 hr and, after that the cells were harvested for the different assays as described. To investigate the role of HIF-1α in genome asynchrony, PGC-1α/β KO primary myotubes were treated for 12 hours with 1 mM DMOG (Sigma) or 10 μM DFO (Sigma), 24 h after infection with empty vector of flag-SIRT1 adenovirus or after 12 h treatment with […] NMN (Sigma).
# as §1
# (§2) Protein extracts from tissue or C2C12 cells were obtained by lysis in ice-cold lysis buffer (150 mM NaCl, 10 mM Tris HCl (pH 7.4), 1 mM EDTA, 1 mM EGTA, 1% Triton X-100, 0.5% NP-40) supplemented with a cocktail of protease and phosphatase inhibitors (Roche). Protein content was determined by the Bradford protein assay (Biorad), and 50 μg proteins were run on SDS-PAGE under reducing conditions. The separated proteins were then electrophoretically transferred to a polyvinylidene difluoride membrane (Perkin-Elmer). […] The immunostaining was detected using horseradish peroxidase-conjugated anti-rabbit or anti-mouse immunoglobulin for 1 h at room temperature.
# primary myoblasts = test: NAD+/NADH ratio and HIF-1α immunoblot in primary WT myoblasts treated with pyruvate or lactate; format: cell-based, mice; settings: 10 mM lactate, 24 h
# Excerpt: FIG. 21 provides additional data related to the content of FIG. 14. FIG. 21A depicts HIF-1α target genes (PGK-1, Glut1, PDK1 and Vegfa) expression in gastrocnemius of WT and SIRT1 KO mice. Relative expression values were normalized to WT mice (n=5). FIG. 21B depicts hypoxia response element activity in primary myoblasts isolated from WT and SIRT1 KO mice and treated with or without DMOG. Relative luciferase activity was normalized to WT cells (n=6, *p<0.05 versus WT). FIG. 21C depicts a representative immunoblot of HIF-1α and Tubulin in PGC-1α/β KO myotubes treated with adenovirus overexpressing SIRT1 or empty vector as well as treatment with DMSO or with HIF stabilizing compound DMOG. FIG. 21D depicts NAD+/NADH ration measured in primary WT myoblasts treated with either 10 mM pyruvate, 10 mM lactate or vehicle for 24 h (n=4). […] FIG. 21J depicts mitochondrial DNA content analyzed by qPCR in control, HIF-1α DPA or HIF-2α DPA C2C12 cells treated with adenovirus overexpressing SIRT1 or empty vector. […] FIG. 21K depicts ARNT mRNA analyzed by qPCR in C2C12 cells infected with ARNT or nontargeting shRNA. […] FIG. 21L depicts mitochondrial DNA content analyzed by qPCR in C2C12 cells infected with ARNT or nontargeting shRNA. […] FIG. 21M depicts ND1, Cytb, COX1 and ATP6 mRNA analyzed by qPCR in C2C12 cells infected with ARNT or nontargeting shRNA. […] Values are expressed as mean±SEM. […]
# TFAM promoter = TFAM promoter activity (luciferase assay) in primary WT myoblasts; format: cell-based, mouse
# Procedure: TFAM promoter, VHL promoter, HRE and c-Myc activity were determined using a luciferase-based system. Luciferase activity was measured using the Dual-Luciferase Reporter Assay System (Promega) with Renilla as the reference.
# TFAM promoter activity was evaluated using a TFAM promotes-luc plasmid. A fragment of the mouse Tfam promoter (1.4 kb upstream of the coding sequence) was cloned into a pGL4.15 vector (Promega). Luciferase activity was measured using the Dual-Luciferase Reporter Assay System (Promega) with Renilla as the reference 48 h after transfection.
# HIF-1α = test: DMOG treatment of SIRT1-tg mice (HIF-1α immunoblot, qPCR, ATP content in gastrocnemius); format: in vivo; settings: DMOG IP 300 mg/kg/day, 5 days
# Procedure: Whole body SIRT1 overexpressor (SIRT1-tg) mice of 6 months of age were given interperitoneal (IP) injections of 300 mg DMOG/kg body weight per day or the equivalent volume of PBS for 5 consecutive days.
# ATP content was measured with a commercial kit according to the manufacturer's instructions (Roche).
# as §1, §2
# [1] = system: inflammation related markers (TNFa, IL-6, IL-18); test: qPCR of inflammation related markers in gastrocnemius; format: in vivo, C57BL/6J mice; settings: 6-month-old mice, DMOG IP 300 mg/kg/day, 5 days
# Procedure: C57BL/6J mice of 3, 6, 22, or 24 months of age were obtained from the National Institutes of Aging mouse aging colony. Mice were acclimated for at least one-week prior to sacrifice. 3, 6, 22 and 24-month-old mice were given interperitoneal (IP) injections of 500 mg NMN/kg body weight per day or the equivalent volume of PBS for 7 consecutive days at 5:00 pm and 7:00 am on day 8 and sacrificed 4 hr after last injection. All animal studies followed the guidelines of and were approved by the Harvard Institutional Animal Care and Use Committee
# C57BL/6J mice of 6 months of age were given interperitoneal (IP) injections of 300 mg DMOG/kg body weight per day or the equivalent volume of PBS for 5 consecutive days. All animal studies followed the guidelines of and were approved by the Harvard Institutional Animal Care and Use Committee
# RNA from skeletal muscle and aorta were extracted with RNeasy mini kit (Qiagen) according to the instructions and quantified using the NanoDrop 1000 spectrophotometer (Thermo Scientific). cDNA was synthesized with the iSCRIP cDNA synthesis kit (BioRad) using 600 ng of RNA. Quantitative RT-PCR reactions were performed using 1 μM of primers and LightCycler® 480 SYBR Green Master (Roche) on an LightCycler® 480 detection system (Roche). Calculations were performed by a comparative method (2-ΔCT) using 18S as an internal control. […]
# [2] = C2C12 myoblasts treated with DMOG, 16 h
smiles,measurement,setting,value
NC(=O)C1CCCc2c1[nH]c1ccc(Cl)cc21 (centres unmarked) [EX-527],genome asynchrony,"C2C12 myoblasts; C2C12 cells, 10 μM EX-527, 12 h",induced
same,nuclear- and mitochondrial-encoded genes,PGC-1α/β KO myotubes; PGC-1α/β KO myotubes reconstituted with PGC-1α T177A/S538A mutant,only the mitochondrial-encoded genes decreased
same,nuclear- and mitochondrial-encoded genes,PGC-1α/β KO myotubes; PGC-1α/β KO myotubes reconstituted with WT PGC-1α,decreased both nuclear- and mitochondrial-encoded genes
CC(O)C(=O)O (centres unmarked) [lactate],HIF-1α protein,primary myoblasts,induces HIF-1α protein stabilization
same,NAD+/NADH ratio,primary myoblasts,decreasing
"COC(=O)CNC(=O)C(=O)OC [DMOG, dimethyloxaloylglycine]",full length TFAM promoter activity,TFAM promoter; DMOG vs vehicle (DMSO),reduces the full length TFAM promoter activity
same,TFAM promoter activity with c-Myc consensus sequence mutation,"TFAM promoter; DMOG, absence of the c-Myc binding site",does not have an additive effect
same,HIF-1α protein,HIF-1α,increase HIF-1α
same,increase in ATP levels observed in SIRT1-tg mice,HIF-1α,abolished
same,increase in the expression of mitochondrial-encoded genes observed in SIRT1-tg mice,HIF-1α,abolished the increase
same,"inflammation related markers (TNFalpha, IL-6, Il-1b and IL-18) in the skeletal muscle",[1],induces inflammatory markers in the skeletal muscle
same,expression of mitochondrially-encoded ETC genes,C2C12 myoblasts; [2],specific decline
same,mtDNA content,C2C12 myoblasts; [2],specific decline
same,effect on NAD (pyruvate) mediated increases in mitochondrial-encoded genes,"PGC-1α/β KO myotubes; PGC-1α/β KO cells, pyruvate in the presence of DMOG",can be inhibited
same,HIF-1α protein,"PGC-1α/β KO myotubes; PGC-1α/β KO myotubes, DMOG (FIG. 21C)",stabilizes HIF-1α protein
same,effect on induction of mitochondrial ETC genes by SIRT1 overexpression,PGC-1α/β KO myotubes,completely blocked
same,expression of mitochondrial-encoded genes,"PGC-1α/β KO myotubes; PGC-1α/β knockout myotubes, DMOG compared to vehicle control",induced a decline
same,effect on NMN-induced expression of mitochondrially-encoded ETC genes,PGC-1α/β KO myotubes,completely abolished
"CC(=O)N(O)CCCCCNC(=O)CCC(=O)N(O)CCCCCNC(=O)CCC(=O)N(O)CCCCCN [DFO, desferrioxamine]",effect on induction of mitochondrial ETC genes by SIRT1 overexpression,PGC-1α/β KO myotubes,completely blocked
same,effect on NMN-induced expression of mitochondrially-encoded ETC genes,PGC-1α/β KO myotubes,completely abolished
